The text below walks through data of US6667312B2, “Thioether substituted imidazoquinolines” (3M Innovative Properties Company, priority 2000, dated 2003).

Structures can show the parent of a compound that is named as a salt.

The melting point is the temperature, or range, at which the solid turns liquid.

Series [1] concerns tumor necrosis factor (α). The experiment in a line: Cytokine Induction in Human Cells: tumor necrosis factor. In kind it is cell-based. As to conditions: human PBMC, 18 to 24 hours, tested 30-0.014 μM, TNF by ELISA or IGEN assay; read-out: Lowest Effective Concentration (μM) Tumor Necrosis Factor. From the text:
(§1) An in vitro human blood cell system is used to assess cytokine induction. Activity is based on the measurement of interferon and tumor necrosis factor (α) (IFN and TNF, respectively) secreted into culture media as described by Testerman et. al. In “Cytokine Induction by the Immunomodulators Imiquimod and S-27609”, Journal of Leukocyte Biology, 58, 365-372 (September, 1995).
(§2) Whole blood from healthy human donors is collected by venipuncture into EDTA vacutainer tubes. Peripheral blood mononuclear cells (PBMC) are separated from whole blood by density gradient centrifugation using Histopaque®-1077. Blood is diluted 1:1 with Dulbecco's Phosphate Buffered Saline (DPBS) or Hank's Balanced Salts Solution (HBSS). The PBMC layer is collected and washed twice with DPBS or HBSS and resuspended at 4×10^6 cells/mL in RPMI complete. The PBMC suspension is added to 48 well flat bottom sterile tissue culture plates (Costar, Cambridge, Mass. or Becton Dickinson Labware, Lincoln Park, N.J.) containing an equal volume of RPMI complete media containing test compound.
(§3) The compounds are solubilized in dimethyl sulfoxide (DMSO). The DMSO concentration should not exceed a final concentration of 1% for addition to the culture wells. The compounds are generally tested at concentrations ranging from 30-0.014 μM.
(§4) The solution of test compound is added at 60 μM to the first well containing RPMI complete and serial 3 fold dilutions are made in the wells. The PBMC suspension is then added to the wells in an equal volume, bringing the test compound concentrations to the desired range (30-0.014 μM). The final concentration of PBMC suspension is 2×10^6 cells/mL. The plates are covered with sterile plastic lids, mixed gently and then incubated for 18 to 24 hours at 37° C. in a 5% carbon dioxide atmosphere.
(§5) Following incubation the plates are centrifuged for 10 minutes at 1000 rpm (˜200× g) at 4° C. The cell-free culture supernatant is removed with a sterile polypropylene pipet and transferred to sterile polypropylene tubes. Samples are maintained at −30 to −70° C. until analysis. The samples are analyzed for interferon (α) by ELISA and for tumor necrosis factor (α) by ELISA or IGEN Assay
Tumor necrosis factor (α) (TNF) concentration is determined using ELISA kits available from Biosource International, Camarillo, Calif. Alternately, the TNF concentration can be determined by Origen® M-Series Immunoassay and read on an IGEN M-8 analyzer from IGEN International, Gaithersburg, Md. The immunoassay uses a human TNF capture and detection antibody pair from Biosource International, Camarillo, Calif. Results are expressed in pg/mL.
(§6) The table below lists the lowest concentration found to induce interferon and the lowest concentration found to induce tumor necrosis factor for each compound.

A further series has as its system interferon (α). The experiment in a line: Cytokine Induction in Human Cells: interferon. In kind it is cell-based. The note with it: human PBMC, 18 to 24 hours, tested 30-0.014 μM, interferon (α) by ELISA; read-out: Lowest Effective Concentration (μM) Interferon.
Excerpt: as §1, §2, §3, §4, §5
Interferon (α) concentration is determined by ELISA using a Human Multi-Species kit from PBL Biomedical Laboratories, New Brunswick, N.J. Results are expressed in pg/mL.
as §6
On the technique in general: An ELISA detects its analyte on a solid surface through an enzyme-linked reagent.

In turn, `CCCCc1nc2c(N)nc3c(c2n1CCSc1ccccc1)CCCC3` (as salt: hydrochloride) [Example 2, 2-butyl-1-[2-(phenylthio)ethyl]-6,7,8,9-tetrahydro-1H-imidazo[4,5-c]quinolin-4-amine Hydrochloride] registered a melting point of 237 to 238 °C.
Regarding `CCCCc1nc2c(N)nc3c(c2n1CCSc1ccccc1)CCCC3` [Example 2, 2-butyl-1-[2-(phenylthio)ethyl]-6,7,8,9-tetrahydro-1H-imidazo[4,5-c]quinolin-4-amine Hydrochloride], the minimal effective concentration is 0.37 µM in series [1] and 0.12 µM with interferon (α).
`CCCCc1nc2c(N)nc3ccccc3c2n1CCCCCS(C)(=O)=O` [Example 11, 2-butyl-1-[5-(methylsulfonyl)pentyl]-1H-imidazo[4,5-c]quinolin-4-amine]: the minimal effective concentration in series [1] stood at 0.12 µM; with interferon (α) it was 0.01 µM.
In the same order, the values of `CCc1nc2c(N)nc3ccccc3c2n1CCCCCS(C)(=O)=O` [Example 13, 2-ethyl-1-[5-(methylsulfonyl)pentyl]-1H-imidazo[4,5-c]quinolin-4-amine] are 3.33 µM and 0.12 µM.
In the same order, the values of `CCCc1nc2c(N)nc3ccccc3c2n1CCCCS(C)(=O)=O` [Example 30, 1-[4-(methylsulfonyl)butyl]-2-propyl-1H-imidazo[4,5-c]quinolin-4-amine] are 3.33 µM and 0.37 µM.
In the same order, the values of `CCCCc1nc2c(N)nc3ccccc3c2n1CCCCS(=O)(=O)CC` [Example 39] are 0.04 µM and 0.04 µM.
Turning to `CCCCc1nc2c(N)nc3ccccc3c2n1CCCCSC(C)(C)C` [Example 40], the minimal effective concentration (in series [1]; in the series on interferon (α)) was 0.01 µM in each case.
For `CCCCc1nc2c(N)nc3ccccc3c2n1CCCCSc1ccc(F)cc1` [Example 41], the minimal effective concentration (in series [1]; with interferon (α)) was 0.37 µM each time.
`CCCCc1nc2c(N)nc3ccccc3c2n1CCCCS(=O)(=O)c1ccc(F)cc1` [Example 42]: the minimal effective concentration (in series [1]; in the series with interferon (α)) was 0.12 µM throughout.
Consider `CCc1nc2c(N)nc3ccccc3c2n1CCCCSC(C)C` [Example 43], for which the minimal effective concentration in series [1] is 0.37 µM; in the series on interferon (α), 0.014 µM.
In the same order, the values of `CCc1nc2c(N)nc3ccccc3c2n1CCCCSc1cc(Cl)cc(Cl)c1` [Example 44] are 10 µM and 1.11 µM.
On the same counts, the results for `CCc1nc2c(N)nc3ccccc3c2n1CCCCS(=O)(=O)C1CCCC1` [Example 45] are 1.11 µM and 0.37 µM.
In the same order, the values of `CCc1nc2c(N)nc3ccccc3c2n1CCCCS(=O)(=O)c1cc(Cl)cc(Cl)c1` [Example 46] are 0.37 µM and 0.12 µM.
Take `CCc1nc2c(N)nc3ccccc3c2n1CCCCSC1CCCCC1` [Example 47]: the results for the minimal effective concentration (in series [1]; with interferon (α)) were 3.33 µM and 0.37 µM, respectively.
For `CCCCSCCCCn1c(CC)nc2c(N)nc3ccccc3c21` [Example 48], the results for the minimal effective concentration (in series [1]; with interferon (α)) were 0.12 µM and 0.014 µM, respectively.
On the same counts, the results for `CCc1nc2c(N)nc3ccccc3c2n1CCCCSc1ccc(Cl)cc1` [Example 49] are 1.11 µM and 0.37 µM.
In the case of `CCCCS(=O)(=O)CCCCn1c(CC)nc2c(N)nc3ccccc3c21` [Example 50], the values for the minimal effective concentration (in series [1]; in the series with interferon (α)) were 1.11 µM and 0.37 µM, respectively.
For the compound `CCc1nc2c(N)nc3ccccc3c2n1CCCCSc1ccc(F)cc1` [Example 51], the minimal effective concentration in series [1] came to 1.11 µM; with interferon (α), 0.12 µM.
On the same counts, the results for `CCc1nc2c(N)nc3ccccc3c2n1CCCCS(=O)(=O)C(C)C` [Example 52] are 1.11 µM and 0.37 µM.
In the case of `CCSCCCCn1c(CC)nc2c(N)nc3ccccc3c21` [Example 53], the minimal effective concentration in series [1] is recorded as 0.37 µM; in the series on interferon (α) it was 0.04 µM.
For the compound `CCc1nc2c(N)nc3ccccc3c2n1CCCCS(=O)(=O)CC` [Example 54], the minimal effective concentration in series [1] amounted to 1.11 µM; with interferon (α) it was 0.37 µM.
On the same counts, the results for `CCc1nc2c(N)nc3ccccc3c2n1CCCCS(=O)(=O)C1CCCCC1` [Example 55] are 1.11 µM and 0.12 µM.
Take `CCCCc1nc2c(N)nc3ccccc3c2n1CCS(=O)(=O)C(C)C` [Example 56]: the minimal effective concentration (in series [1]; with interferon (α)) was 0.37 µM throughout.
On to `CCCCc1nc2c(N)nc3ccccc3c2n1CCS(=O)(=O)c1ccccc1` [Example 57], for which the minimal effective concentration (in series [1]; in the series on interferon (α)) was 1.11 µM in each case.
In the case of `CCCCc1nc2c(N)nc3ccccc3c2n1CCS(=O)(=O)c1ccc(F)cc1` [Example 58], the minimal effective concentration (in series [1]; with interferon (α)) was 1.11 µM throughout.
As to `CCCCc1nc2c(N)nc3ccccc3c2n1CCSC(C)(C)C` [Example 59], the results for the minimal effective concentration (in series [1]; in the series on interferon (α)) were 0.04 µM and 0.01 µM, respectively.
In the same order, the values of `CCCCc1nc2c(N)nc3ccccc3c2n1CCS(=O)(=O)C(C)(C)C` [Example 60] are 0.37 µM and 0.37 µM.
In the same order, the values of `CCCCc1nc2c(N)nc3ccccc3c2n1CCSCCC` [Example 61] are 0.12 µM and 0.04 µM.
On the same counts, the results for `CCCCc1nc2c(N)nc3ccccc3c2n1CCS(=O)(=O)CCC` [Example 62] are 0.37 µM and 0.12 µM.
As to `CCCCc1nc2c(N)nc3ccccc3c2n1CCSCC(C)C` [Example 63], the minimal effective concentration (in series [1]; in the series on interferon (α)) was 0.04 µM throughout.
With `CCCCc1nc2c(N)nc3ccccc3c2n1CCS(=O)(=O)CC(C)C` [Example 64], the minimal effective concentration (in series [1]; in the series on interferon (α)) was 0.12 µM throughout.
For `CCCCc1nc2c(N)nc3ccccc3c2n1CCSCC` [Example 65], the results for the minimal effective concentration (in series [1]; in the series on interferon (α)) were 0.04 µM and 0.01 µM, respectively.
On the same counts, the results for `CCCCc1nc2c(N)nc3ccccc3c2n1CCS(=O)(=O)CC` [Example 66] are 0.12 µM and 0.12 µM.
The compound `CCc1nc2c(N)nc3ccccc3c2n1CCCCSc1ncccn1` [Example 72, 2-ethyl-1-[4-(pyrimidin-2-ylthio)butyl]-1H-imidazo[4,5-c]quinolin-4-amine] displayed a melting point of 182 to 185 °C.
The same measure, in the same setting: the same measure for `Cc1nc2c(N)nc3c(c2n1CCCCS(C)(=O)=O)CCCC3` [Example 74, 2-methyl-1-[4-(methylsulfonyl)butyl]-6,7,8,9-tetrahydro-1H-imidazo[4,5-c]quinolin-4-amine]: 213 to 216 °C; for `Cc1nc2c(N)nc3c(c2n1CCCCCS(C)(=O)=O)CCCC3` [Example 75, 2-methyl-1-[5-(methylsulfonyl)pentyl]-6,7,8,9-tetrahydro-1H-imidazo[4,5-c]quinolin-4-amine]: 172 to 174 °C; for `Cc1nc2c(N)nc3c(c2n1CCCCS(=O)(=O)C(C)C)CCCC3` [Example 76, 2-methyl-1-{4-[(1-methylethyl)sulfonyl]butyl}-6,7,8,9-tetrahydro-1H-imidazo[4,5-c]quinolin-4-amine]: 177 to 178 °C.
